From US6482802B1 (Endowment for Research in Human Biology, Inc., priority 1998, dated 2002)
Values joined by “and” are separate entries in the source; they are usually repeats but may differ in a detail not shown here. Equal values may be shown once. “Also recorded” adds a separate entry of the source.

Legend:
HUVE cells [1] = assay: aFGF-induced proliferation of HUVE cells; type: cell-based, human; conditions: for aFGF Cell No.: aFGF 10 ng/ml, 48 hrs, 0 μM: 73900 ± 2500
Method: (§1) The cells were incubated at 37° C. under humidified air containing 5% CO2 for 48 hrs. […] Cell numbers were determined with a Coulter counter.

HUVE cells [2] = assay: VEGF-induced proliferation of HUVE cells; type: cell-based, human; conditions: for VEGF Cell No.: VEGF 5 ng/ml, 48 hrs, 0 μM: 45100 ± 200
Method: as §1

HUVE cells [3] = assay: bFGF-induced proliferation of HUVE cells, aminoglycoside antibiotics; type: cell-based, human; conditions: aminoglycoside 100 μM
Method: HUVE cells were seeded at 4×10^3 cells/cm^2 in attachment factor (Cell Systems Corp.)-coated 35 mm dishes in HE-SFM, and incubated with 1 μg/ml angiogenin in the presence or absence of inhibitors at 37° C. for 48 hr. Cell were detached by trypsinization and cell numbers were determined with a Coulter counter.
The ability of the other members of the aminoglycoside antibiotic family to inhibit bFGF-induced proliferation of HUVE cells was examined in a similar manner as for angiogenin as described in Section 6.1.1.5, above. HUVE cells, passage 9, were seeded on attachment-factor coated dishes at 50,000 cells per 35 mm dish in HE-SFM. Aminoglycoside antibiotics were added and the cells were incubated with or without […] at 37° C. for 48 hr.

HUVE cells [4] = assay: HUVE cell number with neomycin alone, no angiogenic factor; type: cell-based, human; conditions: 48 hrs, 0 μM: 31400 ± 400
Method: as §1

[5] = tested on: nuclear translocation of EGF in HUVE cells; assay: Nuclear translocation of 125I-EGF in HUVE cells; type: cell-based, human; conditions: for EGF Counts (nuclear fraction): 125I-EGF 50 ng/ml, 0 μM: 140 ± 20
Method: (§2) Inhibition of nuclear translocation of angiogenic factors in HUVE cells was performed in the following manner. […] The cell pellet was washed once with PBS and lysed with 0.5% triton X-100 in PBS. […] Radioactivity in the nuclear fraction was determined with a gamma counter.

[6] = tested on: PC-3 human prostate tumor cells
Description: Mice were examined daily by palpation for the first sign of tumor appearance at which time tumor size was estimated twice weekly by caliper measurements (longest perpendicular length and width).

[7] = tested on: nuclear translocation of 125I-angiogenin in HUVE cells; assay: Nuclear translocation of 125I-angiogenin in HUVE cells
[8] = tested on: chorioallantoic membrane (CAM) of chick embryos; assay: CAM assay, EGF-induced angiogenesis; type: in vivo; conditions: for % Positive: EGF alone 69, water 21
Method: (§3) Angiogenesis was measured on the CAM by the method of Knighton et al. (Knighton et al., 1977, Br. J. Cancer 35:347-356) essentially as described (Fett et al., 1985, Biochemistry 24:5480-5486). Fertilized chicken eggs were kept at 18° C. for 2 days and then incubated in a humidified environment at 37° C. for 3 days. Albumin was aspirated from the embryos and after 24 hours, a “window” was cut through the shell and covered with clear tape. […] After 48-68 hours at 37° C., the growth of blood vessels was observed microscopically and recorded as either positive or negative. A positive response (i.e., an angiogenic response) has a typical “spokewheel” appearance.

[9] = tested on: chorioallantoic membrane (CAM) of chick embryos; assay: CAM assay, VEGF-induced angiogenesis; type: in vivo; conditions: for % Positive: VEGF alone 63, water 21
Method: as §3

[10] = tested on: nuclear translocation of aFGF in HUVE cells; assay: Nuclear translocation of 125I-aFGF in HUVE cells; type: cell-based, human; conditions: for aFGF Counts (nuclear fraction): 125I-aFGF 50 ng/ml, 0 μM: 7800 ± 100
Method: as §2

[11] = tested on: chorioallantoic membrane (CAM) of chick embryos; assay: CAM assay, aFGF-induced angiogenesis; type: in vivo; conditions: for % Positive: aFGF alone 73, water 21
Method: as §3

[12] = tested on: MDA-MB-435 human breast tumor cells; type: in vivo
Method: MDA-MA-435 human breast tumor cells, which are estrogen receptor negative, were injected directly into the mammary fat pad of athymic mice. Age-matched athymic female mice were assigned to treatment groups of 8 mice each and anesthetized with ketamine (212 mg/kg body weight) and xylazine (21.2 mg/kg body weight) given intraperitoneally and allowed to stabilize under anesthesia for 15 min. A heating pad was used to maintain their body temperature throughout the procedure to minimize stress. Betadine followed by 70% alcohol was swabbed onto the skin of the left lateral thorax. An incision of 6 mm in length was made through the skin in the area of the left lateral thorax behind the left front leg and the mammary fat pad was exposed by using gentle pressure with two fingers to separate the skin at the incision site. MDA-MB-435 human breast tumor cells were harvested by trypsinization, washed in HBSS, counted using trypan blue exclusion to determine cell viability, and 10,000 cells in a total volume of 20 μl were injected into the fat pad using a 27 gauge needle. The incision was closed with 2 drops of Vetbond veterinarian tissue adhesive and the mouse was allowed to recover on the heating pad before returning to its cage. […] Mice were examined daily for tumor growth by gentle palpation of the lateral left thorax in the general area of the injection.

HUVE cells [13] = assay: bFGF-induced proliferation of HUVE cells (neomycin dose series); type: cell-based, human; conditions: for bFGF Cell No.: bFGF 10 ng/ml, 48 hrs, 0 μM: 59600 ± 2600
Method: as §1

neomycin
aFGF Inhib. % of cell proliferation (HUVE cells [1]; neomycin 25 μM): 25% | aFGF Cell No. (HUVE cells [1]; neomycin 25 μM): 60000 ± 400 | aFGF Inhib. % of cell proliferation (HUVE cells [1]; neomycin 50 μM): 42% | aFGF Cell No. (HUVE cells [1]; neomycin 50 μM): 51300 ± 400 | aFGF Inhib. % of cell proliferation (HUVE cells [1]; neomycin 100 μM): 50% | aFGF Cell No. (HUVE cells [1]; neomycin 100 μM): 46700 ± 800 | aFGF Inhib. % of cell proliferation (HUVE cells [1]; neomycin 150 μM): 63% | aFGF Cell No. (HUVE cells [1]; neomycin 150 μM): 41000 ± 1000 | aFGF Inhib. % of cell proliferation (HUVE cells [1]; neomycin 200 μM): 68% | aFGF Cell No. (HUVE cells [1]; neomycin 200 μM): 37500 ± 200 | IC50 (HUVE cells [1]; read-out: IC50, aFGF-induced proliferation of endothelial cells): ~100 µM | VEGF Inhib. % of cell proliferation (HUVE cells [2]; neomycin 25 μM): 14% | VEGF Cell No. (HUVE cells [2]; neomycin 25 μM): 41000 ± 300 | VEGF Inhib. % of cell proliferation (HUVE cells [2]; neomycin 50 μM): 20% | VEGF Cell No. (HUVE cells [2]; neomycin 50 μM): 38900 ± 1300 | VEGF Inhib. % of cell proliferation (HUVE cells [2]; neomycin 100 μM): 22% | VEGF Cell No. (HUVE cells [2]; neomycin 100 μM): 36400 ± 400 | VEGF Inhib. % of cell proliferation (HUVE cells [2]; neomycin 150 μM): 36% | VEGF Cell No. (HUVE cells [2]; neomycin 150 μM): 35000 ± 200 | VEGF Inhib. % of cell proliferation (HUVE cells [2]; neomycin 200 μM): 34% | VEGF Cell No. (HUVE cells [2]; neomycin 200 μM): 33800 ± 200 | % Inhibition of bFGF-induced cell proliferation (HUVE cells [3]; bFGF 10 ng/ml): 71% | bFGF (10 ng/ml) Cell Numbers (HUVE cells [3]; bFGF 10 ng/ml, 48 hr, control 99000 ± 1000): 68400 ± 800 | Control (cell number without bFGF) (HUVE cells [3]; no bFGF, 48 hr, control 61300 ± 500): 58000 ± 1500 | Control Cell No. (HUVE cells [4]; neomycin 25 μM): 29800 ± 300 | Control Cell No. (HUVE cells [4]; neomycin 50 μM): 28800 ± 1000 | Control Cell No. (HUVE cells [4]; neomycin 100 μM): 27900 ± 500 | Control Cell No. (HUVE cells [4]; neomycin 150 μM): 27400 ± 200 | Control Cell No. (HUVE cells [4]; neomycin 200 μM): 26300 ± 400 | EGF % Inhib. of nuclear translocation ([5]; neomycin 10 μM): 0% | EGF Counts (nuclear fraction) ([5]; neomycin 10 μM): 140 ± 20 cpm | EGF % Inhib. of nuclear translocation ([5]; neomycin 50 μM): 0% | EGF Counts (nuclear fraction) ([5]; neomycin 50 μM): 140 ± 20 cpm | EGF % Inhib. of nuclear translocation ([5]; neomycin 100 μM): 7% | EGF Counts (nuclear fraction) ([5]; neomycin 100 μM): 130 ± 30 cpm | EGF % Inhib. of nuclear translocation ([5]; neomycin 150 μM): 14% | EGF Counts (nuclear fraction) ([5]; neomycin 150 μM): 120 ± 10 cpm | EGF % Inhib. of nuclear translocation ([5]; neomycin 200 μM): 29% | EGF Counts (nuclear fraction) ([5]; neomycin 200 μM): 100 ± 20 cpm | mice in which appearance of PC-3 tumors was prevented ([6]; 20 mg/kg body weight s.c., 6 times per week 20 days, then 4 times per week 30 days, 6 mice): 50% | tumor status of treated mice by day 18 ([6]; 20 mg/kg s.c., control 2 of 6 with tumor): all of the mice in the neomycin-treated group remained tumor-free | animals that had developed tumors as of day 42 ([6]; 20 mg/kg s.c., control 100%): 50% | % inhibition of nuclear translocation of angiogenin ([7]; inhibitor 10 μM, 125I-angiogenin 1 μg/ml 30 min): 42% | Nuclear 125I-angiogenin ([7]; inhibitor 100 μM, 37° C. 30 min, 125I-angiogenin 1 μg/ml 30 min, control 3090 ± 260): 1230 ± 60 cpm | 125I-angiogenin accumulated in the nucleus, % of control ([7]; neomycin 500 μM): 14% | Nuclear accumulated 125I-angiogenin ([7]; neomycin 500 μM, control 3090±260): 420±100 cpm | IC50 ([7]; read-out: IC50, angiogenin nuclear translocation, HUVE cells): ~50 µM | % Inhibition of angiogenic activity ([8]; EGF 10 ng + neomycin 20 ng): 19% | Positive eggs ([8]; EGF 10 ng + neomycin 20 ng, 15 total eggs): 9 | % Positive ([8]; EGF 10 ng + neomycin 20 ng): 60% | % Inhibition of angiogenic activity ([8]; EGF 10 ng + neomycin 200 ng): 81% | Positive eggs ([8]; EGF 10 ng + neomycin 200 ng, 30 total eggs): 9 | % Positive ([8]; EGF 10 ng + neomycin 200 ng): 30% | dosage that inhibited EGF-induced angiogenesis ([8]; in vivo): about 200 ng per embryo | % Inhibition of angiogenic activity ([9]; VEGF 10 ng + neomycin 200 ng): 10% | Positive eggs ([9]; VEGF 10 ng + neomycin 200 ng, 24 total eggs): 14 | % Positive ([9]; VEGF 10 ng + neomycin 200 ng): 58% | % Inhibition of angiogenic activity ([9]; VEGF 10 ng + neomycin 1000 ng): 24% | % Positive ([9]; VEGF 10 ng + neomycin 1000 ng (1 μg)): 52% | Positive eggs ([9]; VEGF 10 ng + neomycin 1000 ng, 27 total eggs): 14 | inhibition of angiogenic activity of VEGF on the CAM ([9]; VEGF 10 ng, neomycin 200 ng and 1 μg): did not significantly inhibit; also recorded: not significantly inhibited | reduction of angiogenic activity of VEGF on the CAM ([9]; dosage as high as 900 ng per embryo): did not significantly reduce | aFGF % Inhib. of nuclear translocation ([10]; neomycin 10 μM): 15% | aFGF Counts (nuclear fraction) ([10]; neomycin 10 μM): 6600 ± 100 cpm | aFGF % Inhib. of nuclear translocation ([10]; neomycin 50 μM): 26% | aFGF Counts (nuclear fraction) ([10]; neomycin 50 μM): 5800 ± 100 cpm | aFGF % Inhib. of nuclear translocation ([10]; neomycin 100 μM): 32% | aFGF Counts (nuclear fraction) ([10]; neomycin 100 μM): 5300 ± 100 cpm | aFGF % Inhib. of nuclear translocation ([10]; neomycin 150 μM): 38% | aFGF Counts (nuclear fraction) ([10]; neomycin 150 μM): 4800 ± 100 cpm | aFGF % Inhib. of nuclear translocation ([10]; neomycin 200 μM): 43% | aFGF Counts (nuclear fraction) ([10]; neomycin 200 μM): 4500 ± 200 cpm | % Inhibition of angiogenic activity ([11]; aFGF 10 ng + neomycin 20 ng): 71% | Positive eggs ([11]; aFGF 10 ng + neomycin 20 ng, 14 total eggs): 5 | % Positive ([11]; aFGF 10 ng + neomycin 20 ng): 36% | % Inhibition of angiogenic activity ([11]; aFGF 10 ng + neomycin 200 ng): 75% | Positive eggs ([11]; aFGF 10 ng + neomycin 200 ng, 47 total eggs): 16 | % Positive ([11]; aFGF 10 ng + neomycin 200 ng): 32% and 34% | dosage that inhibited aFGF-induced angiogenesis ([11]; in vivo): about 200 ng per embryo | establishment of MDA-MB-435 human breast tumors ([12]; 60 mg/kg body weight i.p., daily 20 days, then 4 times per week 42 days, 8 mice): completely inhibited the establishment | mice with tumors by day 56 ([12]; 60 mg/kg i.p., all 8 control mice developed tumors): none of the mice had tumors | bFGF Inhib. % of cell proliferation (HUVE cells [13]; neomycin 25 μM): 19% | bFGF Cell No. (HUVE cells [13]; neomycin 25 μM): 51500 ± 700 | bFGF Inhib. % of cell proliferation (HUVE cells [13]; neomycin 50 μM): 34% | bFGF Cell No. (HUVE cells [13]; neomycin 50 μM): 45900 ± 1200 | bFGF Inhib. % of cell proliferation (HUVE cells [13]; neomycin 100 μM): 41% | bFGF Cell No. (HUVE cells [13]; neomycin 100 μM): 42600 ± 200 | bFGF Inhib. % of cell proliferation (HUVE cells [13]; neomycin 150 μM): 49% | bFGF Cell No. (HUVE cells [13]; neomycin 150 μM): 39900 ± 125 | bFGF Inhib. % of cell proliferation (HUVE cells [13]; neomycin 200 μM): 64% | bFGF Cell No. (HUVE cells [13]; neomycin 200 μM): 34600 ± 400 | IC50 (HUVE cells [13]; read-out: IC50, bFGF-induced proliferation of endothelial cells): ~100 µM
